In PubChem BioAssay (NCI):
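Abbreviation: GI50, concentration required for 50% inhibition of growth. TGI is the concentration that stops growth completely.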

Experiments:
Experiment in all cases: NCI tumour cell line growth inhibition, 384-well format
SK-MEL-5 melanoma = test system: SK-MEL-5 melanoma
SK-MEL-28 melanoma = test system: SK-MEL-28 melanoma
MDA-MB-231 breast = test system: MDA-MB-231 breast
OVCAR-5 ovarian = test system: OVCAR-5 ovarian
UACC-257 melanoma = test system: UACC-257 melanoma
HT29 colon = test system: HT29 colon
HS 578T breast = test system: HS 578T breast
SK-MEL-2 melanoma = test system: SK-MEL-2 melanoma
K-562 leukemia = test system: K-562 leukemia
MCF7 breast = test system: MCF7 breast
M14 melanoma = test system: M14 melanoma
SF-295 CNS = test system: SF-295 CNS
T-47D breast = test system: T-47D breast

Cc1ccc(S(=O)(=O)Cc2nc(-c3ccc(C(=O)NCc4cccnc4)cc3)oc2C)cc1
GI50 (SK-MEL-5 melanoma): < 10 nM
TGI (SK-MEL-5 melanoma): 20.8 nM
GI50 (SK-MEL-28 melanoma): 17.2 nM
TGI (SK-MEL-28 melanoma): 34.3 nM
GI50 (MDA-MB-231 breast): 39.4 nM
TGI (MDA-MB-231 breast): 149 nM
GI50 (OVCAR-5 ovarian): < 10 nM
TGI (OVCAR-5 ovarian): < 10 nM
GI50 (UACC-257 melanoma): 27.5 nM
TGI (UACC-257 melanoma): 59.6 nM
GI50 (HT29 colon): 18.9 nM
TGI (HT29 colon): 37.9 nM
GI50 (HS 578T breast): < 10 nM
TGI (HS 578T breast): < 10 nM
GI50 (SK-MEL-2 melanoma): < 10 nM
TGI (SK-MEL-2 melanoma): < 10 nM
GI50 (K-562 leukemia): < 10 nM
TGI (K-562 leukemia): < 10 nM
GI50 (MCF7 breast): 14.2 nM
TGI (MCF7 breast): 29.1 nM
GI50 (M14 melanoma): < 10 nM
TGI (M14 melanoma): 16.9 nM
GI50 (SF-295 CNS): 14.1 nM
TGI (SF-295 CNS): 28 nM
GI50 (T-47D breast): < 10 nM
TGI (T-47D breast): < 10 nM
